Measured values published in patent US4591551A, “Radioenzymatic method for assaying normetanephrine and octopamine” (University of Southern California, priority 1984, dated 1986).

Legend:
[1] = target: T1, phenylethanolamine-N-methyl transferase (Bos taurus, UniProt P10938); assay: Substrate specificity: cross reactivities of catecholamines and congeners in the radioenzymatic assay for plasma normetanephrine; assay type: biochemical, bovine; conditions: for % / Counts per Minute, Sample: 500 pg of amine added; for %: sample counts; for Counts per Minute, Sample: without normetanephrine internal standard, metanephrine band after TLC; for Percentage Interference: 500 pg of amine in assay for plasma normetanephrine; for Counts per Minute, Normetanephrine Standard: 500 pg of amine plus 250 pg of normetanephrine; for Normetanephrine: apparent normetanephrine from 500 pg of amine, calculated using 250 pg in the formula
T1 construct: PNMT was partially purified from bovine adrenal medulla; from tissue; host or cells: bovine adrenal medulla
T1 sequence (P10938 1-283): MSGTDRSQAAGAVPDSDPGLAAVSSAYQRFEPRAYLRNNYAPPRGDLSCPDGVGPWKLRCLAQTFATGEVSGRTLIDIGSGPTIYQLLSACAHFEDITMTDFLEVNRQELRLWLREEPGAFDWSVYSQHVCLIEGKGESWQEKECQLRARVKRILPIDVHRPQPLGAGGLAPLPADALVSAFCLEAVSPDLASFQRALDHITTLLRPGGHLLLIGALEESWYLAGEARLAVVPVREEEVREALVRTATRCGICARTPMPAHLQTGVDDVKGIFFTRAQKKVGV
Experimental: (§1) PNMT was partially purified from bovine adrenal medulla according to the method of Henry et al, supra. In accordance with that procedure, thirty-three grams of medullary tissue are dissected from 15 fresh bovine adrenals and homogenized in 280 ml of 1.19 percent KCl solution. The homogenate is centrifuged at 40,000 g for one hour and the supernatant is filtered and recentrifuged at 100,000 g for one hour. To 250 ml of the supernatant are added 5 ml of 0.05M sodium phosphate buffer, pH 7.5 and 44 gm of solid ammonium sulfate. Another 19.8 gm of ammonium sulfate per 100 ml are added. The supernatant is discarded and the precipitate resuspended in 100 ml of 55 percent saturated ammonium sulfate--0.0125M sodium phosphate. The solution is recentrifuged and for each 100 ml of supernatant, 17 gm of ammonium sulfate are added. After centrifugation, the precipitate is resuspended in 50 ml of 0.005M tris, pH 7.4, containing 0.1 mM dithiothreitol and dialyzed in four liters of the buffer with four changes in a 16 hour period. The dialyzed enzyme is then centrifuged at 40,000 g for 10 minutes and frozen in small aliquots.
Duplicate aliquots (20-50 microliters) of the processed specimens were transferred to disposable culture tubes (13×100 mm); 10 ul of deionized water was added to one and the same volume of normetanephrine standard solution (100 pm) was added to the other. Two tubes of 50 microliters of 0.001N NCl were used for blanks instead of plasma for each assay run. The enzymatic reaction was initiated by the addition of a mixture of 10 ul each of 0.5M tris-HCl with 12.5 mM EDTA (pH 10.0), diluted tritiated […] (SAM-H^3 at 1.25 microCurie) and phenylethanolamine-N-methyl transferase prepared as above. The pH of the incubation mixture was 9.2. The incubation was carried out for sixty minutes at 37° C. and terminated by cooling in an ice bath and the addition of 100 ul of 0.5M borate buffer (pH 10.0) containing 5 micromole of metanephrine to facilitate the location of chromotography bands.
Radioactive products were extracted into 3 ml of toluene isoamyl-alcohol mixture (3:2) by agitation on a vortex mixer. The organic layer was separated by centrifugation, transferred to another set of tubes after quick freezing of the aqueous layer in a dry ice acetone bath and subsequently washed by 50 microliter of 0.5M borate buffer (pH 10.0) with similar procedures. Then the organic layer was transferred to a 15 ml centrifuge tube and the N-methylated products were back-extracted to 130 microliter of 0.1N acetic acid. After centrifugation, the organic layer was aspirated off and 100 microliter of the acetic acid phase was spotted on a silica gel plate with a multiple spotter. Thin layer chromatography was carried out in the chamber using as a developing solvent a mixture of tertiary amyl-alcohol, methylamine (40%), benzene (6:3:2, total 73.5 ml) for ninety minutes, in accordance with the procedure of Peuler and Johnson, supra. Then the plate was dried immediately. The metanephrine spot was marked under ultraviolet light, scraped off with a knife and transferred to a plastic vial containing 1 ml of 1N NH4 OH. Ten mls of ScintiVerse (obtained from the Fisher Scientific Co.) was added and the vial was left to stand for at least one hour prior to counting in a liquid scintillation counter. The plasma normetanephrine concentration was calculated from the radioactivity according to the formula given above.
Assays were conducted as in Example I using the solvent system of that example but in which the sample contained 250 pg of normetanephrine and in which there was added to the incubation mixture in individual tubes 10 microliters of the respective reagent listed in Table II.

PNMT = assay: Isomer preference of normetanephrine as substrate for PNMT; assay type: biochemical, bovine; conditions: vs dl-normetanephrine
Experimental: as §1
1-Normetanephrine is the preferred isomer as a substrate for PNMT and yielded about 1.5 times the activity of dl-normetanephrine. Thus, 1-normetanephrine should be used for calibration.

[2] = target: T1, phenylethanolamine-N-methyl transferase; assay: Radioenzymatic assay of octopamine in urine (counted as synephrine); assay type: biochemical, bovine
Experimental: The procedure of Examples I and II can be repeated but with the addition of 100 pg of octopamine in place of the 100 pg of normetanephrine as an internal standard, and by the addition of 5 micromole of unlabeled synephrine in place of the 5 micromole of metanephrine to facilitate chromatography band location. The pH of the incubation mixture is 9.3. The solvent system used is chloroform-ethanol-methylamine (40%) 16:3:2. In this case, synephrine bands are scraped into the scintillation vial and their counts per minute determined to yield the amount of octopamine, as synephrine.
A linear relationship was shown when octopamine was added either to urine or to water at 3-500 pg. Similarly, a linear relation was observed when both the synephrine and dimethyloctopamine were counted together after thin layer chromatography. These findings indicate that methylation of synephrine is proportioned to the added amount of octopamine and therefore validates the measurement of octopamine with this assay. When the synephrine was recovered from thin layer chromatography, it yielded a lower blank and therefore increased sensitivity. […] An additional wash with borate buffer (pH 10) and the use of chloroform-ethanol-methylamine as developing solvents further reduced the blank to a mean value of 56±7 cpm (N=13). Two and one-half octopamine in urine yields about 120-140 cpm. […]

[3] = assay type: physicochemical
Experimental: Blood specimens were collected into commercial vactainer tubes containing 15 milligrams EDTA for 10 ml of blood and placed on ice immediately. After centrifugation at 4° C., exactly 1 ml of plasma was transferred to a 10 ml test tube and kept in the freezer at -20° C. until the assay was performed. In this condition, plasma normetanephrine is stable for at least 2 months.

| SMILES | % [1] [%] | Counts per Minute, Sample [1] [Counts per Minute] | Percentage Interference [1] [%] | Counts per Minute, Normetanephrine Standard [1] [Counts per Minute] | Normetanephrine [1] [pg] | activity as substrate for PNMT relative to dl-normetanephrine (PNMT) | counts yielded by octopamine in urine ([2]; One hundred pg of octopamine in urine) | counts yielded by octopamine in urine ([2]; Two and one-half octopamine in urine) | plasma normetanephrine is stable [3] |
| --- | --- | --- | --- | --- | --- | --- | --- | --- | --- |
| NCCc1ccc(O)cc1 [Tyramine, tyramine] | 1.3 | 81 | 0 | 6090 | 0 |  |  |  |  |
| COc1cc([C@@H](O)CN)ccc1O [1-Normetanephrine] |  |  |  |  |  | about 1.5 times |  |  |  |
| NC[C@H](O)c1ccc(O)c(O)c1 [Norepinephrine, norepinephrine] | 1.6 | 101 | 0.1 | 6020 | 0.6 |  |  |  |  |
| NCC(O)c1ccc(O)cc1 (stereo not drawn) [Octopamine, octopamine] | 11.8 | 726 | 4.9 | 7261 | 24.5 |  | 2,500-3,000 cpm | 120-140 cpm |  |
| CNC[C@H](O)c1ccc(O)c(O)c1 [Epinephrine, epinephrine] | 1.3 | 80 | 0 | 6124 | 0 |  |  |  |  |
| CNCC(O)c1ccc(O)cc1 (stereo not drawn) [Synephrine, synephrine] | 4.2 | 262 | 1.5 | 6160 | 7.5 |  |  |  |  |
| CNCC(O)c1ccc(O)c(OC)c1 (stereo not drawn) [Metanephrine, metanephrine] | 2.9 | 180 | 0.7 | 6363 | 3.8 |  |  |  |  |
| NCCc1ccc(O)c(O)c1 [Dopamine, dopamine] | 1.3 | 80 | 0 | 6130 | 0 |  |  |  |  |
| COc1cc(C(O)CN)ccc1O (stereo not drawn) [Normetanephrine, normetanephrine] |  |  |  |  |  |  |  |  | at least 2 months |
